These results are taken from patent publication US20250171459A1, “2-METHYL-4',5'-DIHYDROSPIRO[PIPERIDINE-4,7'-THIENO[2,3-C]PYRAN] DERIVATIVES AS INHIBITORS OF APOL1 AND METHODS OF USING SAME” (Vertex Pharmaceuticals Incorporated, priority 2022, published 2025).

In this assay the target is T1, APOL1 (Homo sapiens, UniProt O14791).
T1 sequence (O14791 1-398 S342G/I384M): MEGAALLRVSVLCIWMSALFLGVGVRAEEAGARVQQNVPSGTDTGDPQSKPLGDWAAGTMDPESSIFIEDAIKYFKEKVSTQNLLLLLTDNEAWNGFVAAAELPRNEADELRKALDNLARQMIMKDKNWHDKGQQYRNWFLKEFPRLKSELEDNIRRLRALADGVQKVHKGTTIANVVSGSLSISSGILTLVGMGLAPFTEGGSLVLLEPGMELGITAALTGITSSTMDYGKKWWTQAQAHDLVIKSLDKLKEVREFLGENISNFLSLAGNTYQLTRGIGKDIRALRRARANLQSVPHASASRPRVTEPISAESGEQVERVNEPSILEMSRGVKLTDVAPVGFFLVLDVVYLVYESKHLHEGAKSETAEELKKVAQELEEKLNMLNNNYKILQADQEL
Kind of assay: MultiTox-Fluor Multiplex Cytotoxicity Assay in tet-inducible APOL1 T-REx-HEK293 cells (cell rescue, ratio of dead to live cells). It counts as cell-based. Particulars: tet-inducible transgenic APOL1 T-REx-HEK293 cell lines, 50 ng/mL tet, 24 hours; read-out: IP50 (i.e., IC50 for cell proliferation). Put shortly: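 T-REx-HEK293 cells with tet-inducible APOL1 were treated with compound (10 μM top, 10-point 3-fold dilution, duplicate) plus 50 ng/mL tetracycline for 24 h at 37° C, in DMEM with 2% tet-free FBS. MultiTox-Fluor protease signals gave a dead/live ratio, normalized to no tet (100% viability) and tet alone (0%).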

Structures are written as SMILES.

Take `CCc1cc2c(s1)CCOC21CCN(Cc2c[nH]cn2)CC1` [Compound 1141]: the IC50 was 500 to 1000 nM.

Regarding `CCc1cc2c(s1)CCOC21CCN(Cc2cncs2)CC1` [Compound 1142], the IC50 lay within 500 to 1000 nM.

Consider `CCc1cc2c(s1)CCOC21CCN(Cc2cnc(C(C)O)s2)CC1` (stereo not drawn) [Compound 1143], for which the IC50 lay within 500 to 1000 nM.

Consider `CCc1cc2c(s1)CCOC21CCN(Cc2cnc(C(F)(F)F)[nH]2)CC1` [Compound 1144], for which the IC50 lay in the range of 500 to 1000 nM.

`CCc1cc2c(s1)CCOC21CCN(Cc2nc(-c3ccccc3)[nH]c2Cl)CC1` [Compound 1145]: the IC50 is 500 to 1000 nM.

With `CCc1cc2c(s1)CCOC21CCN(Cc2csc(N3CCOCC3)n2)CC1` [Compound 1146], the IC50 was in the range of 500 to 1000 nM.

For `CCc1cc2c(s1)CCOC21CCN(Cc2csc(C(F)(F)F)n2)CC1` [Compound 1147], the IC50 lay in the range of 500 to 1000 nM.

Consider `CCc1cc2c(s1)CCOC21CCN(Cc2ccc(S(C)(=O)=O)cc2)CC1` [Compound 1148], for which the IC50 fell in the range of 500 to 1000 nM.

As to `CCc1cc2c(s1)CCOC21CCN(CC2CN(C(=O)OC(C)(C)C)C2)CC1` [Compound 1149], the IC50 lay within 500 to 1000 nM.

`CCc1cc2c(s1)CCOC21CCN(CC2CCN(C(=O)OC(C)(C)C)CC2)CC1` [Compound 1150]: the IC50 was in the range of 500 to 1000 nM.

For the compound `CCc1cc2c(s1)CCOC21CCN(CC2CCN(S(C)(=O)=O)CC2)CC1` [Compound 1151], the IC50 lay within 500 to 1000 nM.

In the case of `CCc1cc2c(s1)CCOC21CCN(Cc2cc(O)ccn2)CC1` [Compound 1152], the IC50 was in the range of 500 to 1000 nM.

As for `CCc1cc2c(s1)CCOC21CCN(Cc2ccncc2)CC1` [Compound 1153], the IC50 fell in the range of 500 to 1000 nM.

As to `CCc1cc2c(s1)CCOC21CCN(Cc2ccc(S(C)(=O)=O)cc2F)CC1` [Compound 1154], the IC50 lay within 500 to 1000 nM.

As to `CCc1cc2c(s1)CCOC21CCN(CC2CC2)CC1` [Compound 1155], the IC50 fell in the range of 500 to 1000 nM.

With `CCc1cc2c(s1)CCOC21CCN(Cc2cncnc2)CC1` [Compound 1156], the IC50 was 500 to 1000 nM.

Consider `CCc1cc2c(s1)CCOC21CCN(Cc2ccc(OC)nc2)CC1` [Compound 1157], for which the IC50 lay in the range of 100 to 500 nM.

With `CCc1cc2c(s1)CCOC21CCN(Cc2cn(C)nn2)CC1` [Compound 1158], the IC50 was 500 to 1000 nM.

On to `CCc1cc2c(s1)CCOC21CCN(Cc2ccc(NS(=O)(=O)CCCO)cc2)CC1` [Compound 1159, N-(4-((2′-ethyl-6′,7′-dihydrospiro[piperidine-4,4′-thieno[3,2-c]pyran]-1-yl)methyl)phenyl)-3-hydroxypropane-1-sulfonamide], for which the IC50 is less than 100 nM.

Take `CCc1cc2c(s1)CCOC21CCN(Cc2ccc(NCc3cc[nH]c(=O)c3)cc2)CC1` [Compound 1162]: the IC50 lay in the range of 100 to 500 nM.

As for `CCc1cc2c(s1)CCOC21CCN(Cc2ccc(NS(=O)(=O)C3CC3)cc2)CC1` [Compound 1163], the IC50 lay within 100 to 500 nM.

Turning to `Clc1cc2c(s1)CCOC21CCN(Cc2cn[nH]c2)CC1` [Compound 1165, 2-chloro-1′-(1H-pyrazol-4-ylmethyl)spiro[6,7-dihydrothieno[3,2-c]pyran-4,4′-piperidine]], the IC50 is 100 to 500 nM.

In the case of `CC(=O)n1cc(CN2CCC3(CC2)OCCc2sc(Cl)cc23)cn1` [Compound 1166], the IC50 is 100 to 500 nM.

With `Cn1cc(CN2CCC3(CC2)OCCc2sc(C(F)(F)F)cc23)cn1` [Compound 1167], the IC50 is 100 to 500 nM.

For the compound `Cn1cc(CN2CCC3(CC2)OCCc2sc(Cl)cc23)cn1` [Compound 1168], the IC50 was 500 to 1000 nM.

As to `CS(=O)(=O)CCn1cc(CN2CCC3(CC2)OCCc2cc(Cl)sc23)cn1` [Compound 1169, 2′-chloro-1-((1-(2-(methylsulfonyl)ethyl)-1H-pyrazol-4-yl)methyl)-4′,5′-dihydrospiro[piperidine-4,7′-thieno[2,3-c]pyran]], the IC50 was 100 to 500 nM.

`CCc1cc2c(s1)C[C@@H](C)OC21CCN(Cc2cnn(C)c2)CC1` [Compound 1176]: the IC50 was 500 to 1000 nM.
